Experiments:
[1] = system: rats with middle cerebral artery occlusion (MCAO); assay: Acute cerebral infarction model in rats with middle cerebral artery occlusion (MCAO); type: in vivo, male SD rats; conditions: for ED50: Rattus norvegicus, ip, 72 h, intraperitoneal injection, TTC staining after 3 days, read-out: ED50 for infarction inhibition rate (%); for Longa nerve scoring, protective effect on nerves (in words): FIG. 5
Description: After obtaining the active molecules that can promote the expression of VEGF-A mRNA in the animal model of inflammatory angiogenesis, a rat model of cerebral infarction was used for further verification. Following the method as described in Longa, E. Z., Longa, E. Z., Weinstein, P. R., Carlson, S. & Commin, R. Reversible middle cerebral artery occlusion without craniectomy in rats. [J]. Stroke, 1989. 1: 84-91, an acute cerebral infarction model was established in rats with middle cerebral artery occlusion (MCAO); and following the method as described in C. dela Torre, T. Fortin, G. A. S. Park, K. S. Butler, P. Kozlowski, B. A. Pappas, H. de Socarraz, J. K. Saunders and M. T. Richard. [J]. Brain Research, 1992. 582:186-195, a chronic cerebral ischemia model was established in rats with permanent ligation of bilateral common carotid arteries (2VO). The inhibition on cerebral infarction and neuroprotection for brain injury of the active molecules screened in Effect Example 2 were verified.
The control drugs were: Edaravone (purchased from Zhejiang Shengtong Biotechnology Co., Ltd.), Clopidogrel bisulfate (purchased from Wuhan Yuancheng Gongchuang Technology Co., Ltd.), and Salvianolate (purchased from Henan Provincial People's Hospital). Clopidogrel bisulfate is a platelet aggregation inhibitor, and Edaravone is a brain protectant (free radical scavenger). The MCAO model of rats was made by the thread occlusion method. The rats used in this effect example were male SD rats weighing 280-320 grams, purchased from Shanghai SLAC Laboratory Animal Co., Ltd. Five SD (Sprague Dawley) rats in each group were administered by intraperitoneal injection, 2 h before surgery, and every 24 h after modeling.
Three days later, the brain was taken, and the rat brain was stained with TTC (2,3,5-triphenyltetrazolium chloride, to detect the cell viability) and then photographed. Infarction rate (%)=(Non-infarction area of right brain section−non-infarction area of left brain section)/total area of brain section*100%. According to t tests, *P<0.05, **P<0.01, ***P<0.001 compared with the model group (MCAO). Infarction inhibition rate (%) at different doses=(infarction rate of model group-infarction rate of treatment group)/infarction rate of model group*100%. The infarction inhibition rate at different doses was plotted, and the ED50 of the drug was calculated.
Moreover, the body weight of the rats was recorded. The rate of body weight change was calculated according to a formula: Rate of body weight change (%)=(final weight-initial weight)/[…].
Three days after the acute cerebral infarction model was established in rats with MCAO, the test rats were scored for neurological function according to the Longa nerve scoring standard.
Three days after the acute cerebral infarction model of MCAO was established in rats, the intact brain tissue was taken out, olfactory bulb and the brain tissue that is 4 mm in front of the frontal pole was removed, and the immediately adjacent brain tissue of 2 mm thick was taken for water content measurement in the brain. The water content in brain tissue is calculated by the formula: (WW−DW)/WW×100%, where WW is the wet weight and DW is the dry weight. Three days after the acute cerebral infarction model of MCAO was established in rats, the brain tissue was stained with Evans Blue (EB, a commonly used azo dye preparation) to evaluate the permeability across the blood-brain barrier (BBB), so as to evaluate the integrity of blood-brain barrier. Both experiments were tested with the optimal dose of each drug previously determined: TG-028 (5 mg/Kg), Salvianolate (20 mg/Kg), Clopidogrel bisulfate (40 mg/Kg), Edaravone (40 mg/Kg).

VEGF-A mRNA = assay: Sponge implanted animal model of inflammatory angiogenesis: VEGF-A mRNA expression; type: in vivo, male C57/BL6 mice; conditions: 2 weeks; for activity in promoting VEGF-A mRNA expression compared with Salvianolate (in words): positive control Salvianolate 60 mg/kg/d, sponge implanted mice
Description: The target pro-angiogenic compounds TG-052, TG-053, TG-054, TG-028, and TG-055 obtained in Effect Example 1 that perform well at the cellular level were further screened for the active molecules that promote VEGF-A mRNA expression in the “sponge implanted animal model” of inflammatory angiogenesis. […] This model can well reflect the expression of VEGF-A mRNA in macrophages recruited around inflammation.
A sponge implanted mouse model was established following the method as described in Zhang J, Modi Y, and Yarovinsky T, et al. Macrophage β2 integrin-mediated, HuR-dependent stabilization of angiogenic factor-encoding mRNAs in inflammatory angiogenesis. [J]. American Journal of Pathology, 2012. 180(4): 1751-1760. The mice used in the present invention was male C57/BL6 mice aged 6-8 weeks and weighing 20-25 g, purchased from Shanghai SLAC Laboratory Animal Co., Ltd, Production License No: SCXK (Shanghai) 2013-0016. The compound screened in Effect Example 1 was weighed according to the amount intended to be used in two weeks, and then mixed with a gel matrix and a solvent to prepare a sustained-release gel of the compound (see Patent Application No.: CN201610168493.9 for the details of the preparation method of the sustained-release gel and the model establishment and detection methods). The specific steps were as follows. A certain amount of the compound obtained in Effect Example 1 was weighed into a 1.5 mL EP tube, and then a certain amount of poly-L-lactic acid (PLLA) with a weight average molecular weight of less than 10,000 was weighed and mixed with the compound (at a weight ratio of the compound to PLLA of 0.5:1 to 2:1). Finally a certain amount of DMSO (less than 100 microliters) was added, spun, mixed well, and then sealed with a sealing film. After continuous ultrasonication at 200 W and 25° C. for 5 h, a sustained-release gel of the compound was obtained, which was stored at 4° C. for later use.
The prepared sustained-release gel can release the drug completely within 2 weeks. The sustained-release gel and sponge were both subcutaneously implanted in the mice at the back. After 2 weeks, the sponge was taken out, and the residual tissue and fur were removed. The sponge was transferred to a cell culture plate containing 10 mL of DMEM medium containing collagenase (Collagenase:DMEM=10 mg/10 mL), cut, and incubated for 1 h in a cell incubator. Then the culture medium containing sponge debris was filtered, and the resulting filtrate was centrifuged. The supernatant was discarded, and 500 μL of Trizol reagent was added to the pellet, and mixed uniformly by blowing. Then the liquid was transferred to a 1.5 mL EP tube, and stored at −80° C. RNA was extracted according to a conventional method, and the RNA concentration was determined using a microvolume nucleic acid and protein analyzer (Nanodrop2000c). The required volume V of RNA was calculated according to the RNA concentration, and the RNA reverse transcription reaction system was prepared according to Table 1. Then RNA reverse transcription (cDNA synthesis) was carried out according to the conditions described in Table 2. The resulting cDNA was used to prepare a fluorescence quantitative qPCR reaction solution according to Table 3. The fluorescence quantitative qPCR reaction conditions were set according to Table 4, and the fluorescence quantitative PCR reaction was performed using cDNA from the reverse transcription reaction as a template. The relative expression level 2^−ΔΔCt of the target gene was calculated from the Ct value of each sample with the blank group as a control and β-Actin as an internal reference. The expression level of VEGF-A mRNA in the cells extracted from the sponge was observed after 2 weeks. […]

SMILES	effect on inhibiting cerebral infarction (in words) ([1]; MCAO, compared with the control drugs)	ED50 ([1]; MCAO) [mg/kg]	water content in brain, effect on reducing cerebral edema (in words) ([1]; TG-028 5 mg/Kg, three days after MCAO, FIG. 6A)	integrity of blood-brain barrier, Evans Blue (in words) ([1]; TG-028 5 mg/Kg, three days after MCAO, FIG. 6B)	Longa nerve scoring, protective effect on nerves (in words) ([1]; three days after MCAO)	rate of body weight change, protection (in words) ([1]; three days after brain injury, FIG. 3)	VEGF-A mRNA expression level relative to blank control without drugs (VEGF-A mRNA; 11.74 mg/kg/d, sustained-release gel, mice)	VEGF-A mRNA expression level relative to blank control without drugs (VEGF-A mRNA; 23.48 mg/kg/d, sustained-release gel, mice)	activity in promoting VEGF-A mRNA expression compared with Salvianolate (in words) (VEGF-A mRNA)	increase of expression level of VEGF-A mRNA compared with blank control without drugs (VEGF-A mRNA; 19.48 mg/kg/d, sustained-release gel, mice)
COc1ccc(CCCCO[C@@H]2O[C@H](CO)[C@@H](O)[C@H](O)[C@H]2O)cc1 [TG-028]	most potent effect on inhibiting cerebral infarction in rats	2.61	better effect on reducing cerebral edema after acute brain injury of MCAO in rats than Edaravone, Clopidogrel bisulfate, and Salvianolate	better protective effect on blood-brain barrier after acute brain injury of MCAO in rats than Edaravone and Salvianolate	equivalent to that of Edaravone, Clopidogrel bisulfate, and Salvianolate	significant protection for rats in terms of the body weight after brain injury	more than 6 times	more than 6 times	significantly higher than that of Salvianolate	
OC[C@H]1O[C@@H](OCCc2ccccc2)[C@H](O)[C@@H](O)[C@@H]1O [TG-055]		65.3			equivalent to that of Edaravone, Clopidogrel bisulfate, and Salvianolate				comparable to that of Salvianolate	about 3 times
